{"source": "patent US20250082752A1", "about": "“COMPOUNDS, TARGETS, AND METHODS FOR MODULATING LYTIC GRANULE CONVERGENCE IN CYTOTOXIC CELLS TO PROMOTE BYSTANDER KILLING IN CELLULAR THERAPIES” (THE TRUSTEES OF COLUMBIA UNIVERSITY IN THE CITY OF NEW YORK, priority 2022, published 2025)", "type_in_all_cases": "cell-based", "key": {"[1]": {"system": "YTS cells", "test": "Confocal microscopy of granule dispersion in YTS cells after Centrinone or CFI400495", "details": "YTS cells after treatment with Centrinone or CFI400495", "protocol": "(§1) Centrinone and CFI400495 are high affinity and selective PLK4 inhibitors that induce depletion of the centrosome and cell cycle arrest. YTS cells were treated for 5 days with Centrinone 5 nM or CFI400495 50 nM. […] For this experiment, 5×10^5 cells/ml YTS cells were incubated during 5 days Centrinone 5 nM or CFI400495 50 nM, every 24 hours the media were replaced with fresh media containing similar amounts of the drug. On day 5, cells were assessed by microscopy for gamma-tubulin or alpha-tubulin."}, "[2]": {"system": "YTS cells", "test": "CD107a degranulation of treated YTS cells after conjugation with 721.221 target cells", "details": "5 days, Centrinone 5 nM or CFI400495 50 nM", "protocol": "CD107a (also known as LAMP-1) is the standard to measure the process of degranulation. The more CD107a is expressed on the surface of the cell after stimulation, the more granules have been released. This is limited to the immunological synapse, in part secondary to the convergence process. CD107a upregulation is measured via flow cytometry after PMA/lonomycin activation and can be measured following target cell conjugation. […] The latter requires synapse formation and engagement of receptors for downstream activation signaling. Differences in results between these two approaches (target cell conjugation versus PMA/lonomycin) map the candidate's impact to early (synapse formation and signaling) or late (mechanics of) degranulation.\nas §1"}, "[3]": {"system": "YTS cells", "test": "Number of MTOC (alpha-tubulin hyper densities) in YTS cells treated with PLK4 inhibitors", "details": "5 days, Centrinone 5 nM or CFI400495 50 nM", "protocol": "as §1"}}, "data": [{"smiles": "COc1c(Nc2cc(C)[nH]n2)nc(Sc2ccc(S(=O)(=O)Cc3cccc([N+](=O)[O-])c3F)cc2F)nc1N1CCOCC1", "note": "[Centrinone, 2-[[2-Fluoro-4-[[(2-fluoro-3-nitrophenyl)methyl]sulfonyl]phenyl]thio]-5-methoxy-N-(5-methyl-1H-pyrazol-3-yl)-6-(4-morpholinyl)-4-pyrimidinamine]", "values": [{"measurement": "granule dispersion (confocal microscopy images)", "setting": "[1]", "result": "more disperse granules"}, {"measurement": "degranulation (CD107a expression)", "setting": "[2]", "result": "increases degranulation"}, {"measurement": "number of MTOC (alpha Tubulin hyper densities)", "setting": "[3]", "result": "increase number of mTOC"}]}]}
